Results taken from PubChem BioAssay (NCI).
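Protocol summary: plate cells (96-well), add compound at 5 concentrations, incubate 48 h, interpolate endpoints linearly. TGI: concentration producing complete growth inhibition.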

Key:
Experiment in all cases: NCI-60 cell line screen, 48 h
HCC-2998 colon = test system: HCC-2998 colon
K-562 leukemia = test system: K-562 leukemia
HCT-116 colon = test system: HCT-116 colon
RXF 393 renal = test system: RXF 393 renal
SK-MEL-2 melanoma = test system: SK-MEL-2 melanoma
HL-60(TB) leukemia = test system: HL-60(TB) leukemia
EKVX NSCLC = test system: EKVX NSCLC
UO-31 renal = test system: UO-31 renal
MCF7 breast = test system: MCF7 breast
HT29 colon = test system: HT29 colon
PC-3 prostate = test system: PC-3 prostate
U251 CNS = test system: U251 CNS
COLO 205 colon = test system: COLO 205 colon
NCI-H23 lung = test system: NCI-H23 lung
HOP-62 NSCLC = test system: HOP-62 NSCLC
CAKI-1 renal = test system: CAKI-1 renal
DU-145 prostate = test system: DU-145 prostate
SF-539 CNS = test system: SF-539 CNS
MOLT-4 leukemia = test system: MOLT-4 leukemia
LOX IMVI melanoma = test system: LOX IMVI melanoma

SMILES	TGI (HCC-2998 colon) [µM]	TGI (K-562 leukemia) [µM]	TGI (HCT-116 colon) [µM]	TGI (RXF 393 renal) [µM]	TGI (SK-MEL-2 melanoma) [µM]	TGI (HL-60(TB) leukemia) [µM]	TGI (EKVX NSCLC) [µM]	TGI (UO-31 renal) [µM]	TGI (MCF7 breast) [µM]	TGI (HT29 colon) [µM]	TGI (PC-3 prostate) [µM]	TGI (U251 CNS) [µM]	TGI (COLO 205 colon) [µM]	TGI (NCI-H23 lung) [µM]	TGI (HOP-62 NSCLC) [µM]	TGI (CAKI-1 renal) [µM]	TGI (DU-145 prostate) [µM]	TGI (SF-539 CNS) [µM]	TGI (MOLT-4 leukemia) [µM]	TGI (LOX IMVI melanoma) [µM]
CC1(C)N=C(C(=O)c2ccccc2)N(O)C1(O)c1ccccc1 (stereo not given)	> 100	> 100	> 100	> 100	> 100	> 100	> 100	> 100	> 100	> 100	> 100	> 100	> 100	> 100	> 100	> 100	> 100	> 100	> 100	> 100
C#C[C@]1(O)CC[C@H]2[C@@H]3CCC4=C/C(=N\OCCN(CC)CC)CC[C@]4(C)[C@H]3CC[C@@]21C	25.9	11.9	17.6	7.35	11.3	3.42	26.6	15.8	21.3	14.6	16.1	> 38.3	11.5	19.7	16	39.7	25.8	10.1	1.04	13.1
Cc1cc(=O)oc2c(C)c3oc(CBr)c(Br)c3cc12	70.7	66.8	67.9	41.6	> 100	> 100	> 100	36.5	> 100	> 100	> 100	> 100	> 100	> 100	> 100	31.6	> 100	> 100	> 100	28.8
O=S(=O)(O)c1cc(N=Nc2cc(S(=O)(=O)O)c3cccnc3c2O)ccc1/C=C/c1ccc(N=Nc2cc(S(=O)(=O)O)c3cccnc3c2O)cc1S(=O)(=O)O	> 100	> 89.8	> 100	> 31.6	> 100	56.5	> 100	> 100	> 100	> 100	> 100	> 100	> 100	> 100	> 100	> 100	> 100	> 100	48.3	> 100
CCSC1=N/C(=C/c2ccccc2O)C(=O)N1	> 100	> 100	> 100	68.1	> 100	> 100	> 100	> 100	> 100	> 100	> 100	> 100	> 100	> 100	> 100	> 100	> 100	91.8	> 100	> 100
CCOC(=O)/C(C[C@H]1OC(C)(C)O[C@@H]1[C@H]1COC(C)(C)O1)=N/O	> 100	> 100	> 100	> 100	> 100	> 100	> 100	> 100	> 100	> 100	> 100	> 100	> 100	> 100	> 100	> 100	> 100	> 100	> 100	> 100
CC1(C)CC(=O)c2c(nc(SSc3nc4c(c(-c5ccc(Br)cc5)c3C#N)C(=O)CC(C)(C)C4)c(C#N)c2-c2ccc(Br)cc2)C1	> 10	> 10	> 10	> 10	> 10	> 10	> 10	> 10	> 10	> 10	> 10	> 10	> 10	> 10	> 10	> 10	> 10	> 10	> 10	> 10
COC(=O)c1ccccc1C1CN=NC12Cc1cc(C)c(C)cc1C2=O (stereo not given)	> 100	> 100	> 100	> 100	> 100	46.9	> 100	> 100	65	> 100	> 100	> 100	> 100	> 100	> 100	> 100	> 100	> 100	89.8	92.7
